The source of these data is patent US20080319065A1, “Systemic and Intrathecal Effects of a Novel Series of Phospholipase A2 Inhibitors on Hyperalgesia and Spinal Pge2 Release” (The Regents of the University of California, priority 2005, published 2008).

For data set [1], the target named is T1, Group IVA cPLA2 (GIVA PLA2) (Homo sapiens, UniProt P47712).
T1 sequence (P47712 1-749): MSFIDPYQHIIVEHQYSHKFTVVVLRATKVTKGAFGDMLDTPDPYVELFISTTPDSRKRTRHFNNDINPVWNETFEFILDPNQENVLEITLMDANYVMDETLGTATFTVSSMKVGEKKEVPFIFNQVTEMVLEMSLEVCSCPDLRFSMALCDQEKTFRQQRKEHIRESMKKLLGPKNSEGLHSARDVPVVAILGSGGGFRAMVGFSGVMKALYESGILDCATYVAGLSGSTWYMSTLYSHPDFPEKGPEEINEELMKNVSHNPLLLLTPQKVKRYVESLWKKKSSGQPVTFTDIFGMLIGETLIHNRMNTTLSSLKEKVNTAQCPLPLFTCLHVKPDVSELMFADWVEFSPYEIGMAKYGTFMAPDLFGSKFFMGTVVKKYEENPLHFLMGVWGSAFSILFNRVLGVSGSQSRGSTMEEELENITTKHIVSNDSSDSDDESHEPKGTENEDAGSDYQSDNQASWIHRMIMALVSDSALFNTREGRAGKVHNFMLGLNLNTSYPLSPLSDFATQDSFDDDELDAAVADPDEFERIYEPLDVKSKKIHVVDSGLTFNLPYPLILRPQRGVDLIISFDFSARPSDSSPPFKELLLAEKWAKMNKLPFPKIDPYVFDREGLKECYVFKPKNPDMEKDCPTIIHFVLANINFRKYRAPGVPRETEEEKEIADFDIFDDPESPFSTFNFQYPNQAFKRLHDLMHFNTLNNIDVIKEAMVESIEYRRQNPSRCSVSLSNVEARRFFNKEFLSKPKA
Put plainly: In vitro Group IVA cPLA2 mixed micelle assay. The format is biochemical. As to conditions: for Group IVA XI(50) (mole fraction): Table 1b. The protocol:
(§1) Numerous 2-oxoamides were tested for inhibition of PLA2s in in vitro assay systems. The data, summarized in Tables 1a, 1b and 2 are represented as XI(50) values unless otherwise noted. XI(50) is defined as the inhibitor concentration that produced 50% inhibition. XI(50) is used as opposed to the more common IC50 because GIVA and GVIA PLA2 are active at a two-dimensional lipid interface rather than in three-dimensional solution. (Deems, Anal. Biochem., 287:1-16, 2000). The 2-oxoamide inhibitors likely partition to the micelle interface and therefore must be represented as a percentage of surface concentration (mole fraction) as opposed to bulk concentration (molar units). (Kokotos, et al., J. Med. Chem., 45:2891-2893, 2002).
(§2) In vitro Group IV cPLA2 and Group VI iPLA2 assays were done as previously described (Kokotos, et al., supra, 2002). Briefly, 100 μM lipid substrate and 100,000 cpm radiolabeled analog were dried down under N2 and dissolved in assay buffer containing 400 μM Triton X-100 to yield a mixed micelle substrate solution. Inhibitors dissolved in DMSO were added to the reaction tubes and allowed to incubate with substrate for five minutes at 40° C. Pure enzyme was added to yield a final volume of 500 μl, and digestion was carried out at 40° C. for 30 minutes. Reactions were quenched and extracted using the Dole method and products were quantified by liquid scintillation counting. Percent inhibition was determined at a range of inhibitor mole fraction concentrations for XI(50) calculations.

Data set [2] addresses T2, Group VIA iPLA2 (GVIA PLA2) (Homo sapiens, UniProt O60733).
T2 sequence (O60733 1-806): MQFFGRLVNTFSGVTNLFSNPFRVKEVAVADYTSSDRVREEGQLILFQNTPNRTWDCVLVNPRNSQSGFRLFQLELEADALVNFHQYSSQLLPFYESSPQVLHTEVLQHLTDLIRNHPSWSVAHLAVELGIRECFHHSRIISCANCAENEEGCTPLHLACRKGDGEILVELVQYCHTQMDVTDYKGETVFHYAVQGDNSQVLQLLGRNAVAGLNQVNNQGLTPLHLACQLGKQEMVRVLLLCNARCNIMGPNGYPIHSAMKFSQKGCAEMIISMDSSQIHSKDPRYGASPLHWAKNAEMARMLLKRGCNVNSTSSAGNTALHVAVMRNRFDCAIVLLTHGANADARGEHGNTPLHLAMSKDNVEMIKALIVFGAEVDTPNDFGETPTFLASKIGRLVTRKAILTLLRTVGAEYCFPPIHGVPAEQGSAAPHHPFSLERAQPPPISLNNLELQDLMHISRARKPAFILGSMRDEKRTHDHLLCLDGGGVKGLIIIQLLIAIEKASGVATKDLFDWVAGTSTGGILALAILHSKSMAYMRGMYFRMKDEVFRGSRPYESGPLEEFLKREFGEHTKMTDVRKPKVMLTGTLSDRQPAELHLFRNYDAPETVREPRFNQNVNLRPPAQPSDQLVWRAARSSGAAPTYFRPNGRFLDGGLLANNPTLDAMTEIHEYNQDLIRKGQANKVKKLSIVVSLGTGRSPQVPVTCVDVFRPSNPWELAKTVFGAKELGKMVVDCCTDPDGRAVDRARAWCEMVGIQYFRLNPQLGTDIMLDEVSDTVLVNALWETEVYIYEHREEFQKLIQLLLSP
Put plainly: In vitro Group VIA iPLA2 mixed micelle assay. The format is biochemical. The protocol:
as §1, §2

For the next data set, the target named is T3, GV sPLA2 (Homo sapiens, UniProt P39877).
T3 sequence (P39877 21-138): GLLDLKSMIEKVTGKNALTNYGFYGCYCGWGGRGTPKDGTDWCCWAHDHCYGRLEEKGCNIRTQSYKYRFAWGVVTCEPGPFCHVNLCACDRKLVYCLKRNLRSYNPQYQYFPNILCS
Put plainly: GV sPLA2 activity assay. The data set is classed as biochemical. As to conditions: at 0.091 mole fraction. On the procedure:
GV sPLA2 activity was measured in a similar assay. The final assay buffer was composed of 50 mM Tris-HCl (pH 8.0) and 5 mM CaCl2. Each assay was performed in 500 μL total volume made up of 100 μL of 5× substrate solution (20 μL of 10 mM Triton X-100 and 80 μL assay buffer), 390 μL assay buffer, 10 μL GV sPLA2 solution (1 μL of 40 ng/μL stock and 9 μL assay buffer), and 5 μL of DMSO or 2-oxoamide in DMSO. The 5× substrate solution was prepared by drying down the phospholipids (in organic solvent) with N2. The appropriate volume of 10 mM Triton X-100 was added, heated and vortexed until clear. Then assay buffer was added to make a 5× substrate solution. The final mixed micelles were at 400 μM Triton X-100 and 100 μM DPPC (of which 100,000 cpm of ^14C-DPPC).

Data set [3] deals with murine RAW 264.7 macrophage-like cell line. Put plainly: Long-term LPS stimulation, PGE2 release. The format is cell-based. As to conditions: low μM range. The protocol:
Several 2-oxoamides were tested in the long-term lipopolysaccharide (LPS) stimulation pathway in the murine RAW 264.7 macrophage-like cell line. (Raschke, et al., Cell, 1978, 15, 261-267). This pathway requires GIVA PLA2 activity and results in the extracellular release of many eicosanoid compounds including the prostaglandin PGE2. (Gijon, et al., leukoc. Biol., 1999, 65, 330-336). […] In the low μM range, AX041 and AX073 reduced PGE2 release by roughly 40% (FIG. 1(D)). At 1 μM and 5 μM concentrations, small activations were often seen. The in vitro and cellular results together are consistent with the known roles of GVIA PLA2 given that AX010, a selective GVIA inhibitor, had no cellular effect. […] Inhibitors selective for GIVA PLA2 or dual specificity inhibitors reduce PGE2 levels, also consistent with the known role of GIVA PLA2 in PGE2 production.

The target of another data set is T4, GVIA PLA2 (Homo sapiens, UniProt O60733).
T4 sequence (O60733 1-806): T2 sequence (O60733 1-806)
Put plainly: Time dependence and reversibility of GVIA PLA2 inhibition. The format is biochemical. The protocol:
GVIA PLA2 (25 ng) was preincubated with either AX010 or AX0073 (5 μM) for 0, 5, 15 or 30 minutes and then assayed in the standard GVIA PLA2 assay mix containing 5 μM inhibitor. The final concentration of the inhibitors in the assay mix was 0.01 mole fraction, and the samples were incubated for 30 minutes at 40° C. […] In the latter respect, 25 ng of GVIA PLA2 was pre-incubated with 10 μM AX010 or AX073 for 10 minutes before diluting the enzyme 1:50 into the standard GVIA PLA2 assay mix lacking inhibitor, and incubating for 30 minutes at 40° C. The final inhibitor concentration in these assays was 0.0004 mole fraction, well below surface concentrations that either AX010 or AX073 inhibit the enzyme.

In the next data set the test system is spinal release of PGE2. Briefly: Intrathecal dialysis and PGE2 assay. Conditions: 3 mg/kg IP pretreatment. The data set is classed as in vivo, rat. From the text: For spinal drug injections, lumbar catheters were implanted in rats under isoflurane anesthesia according to a modification of the procedure described by Yaksh (Yaksh and Rudy, supra, 1976). A polyethylene catheter (PE-5; Spectranetics, 0.014 in OD) was inserted into the intrathecal space and advanced to the rostral edge of the lumbar enlargement through an incision in the atlanto-occipital membrane. Five days after implantation rats were entered into the study. In separate experiments to assess spinal prostaglandins release, rats were prepared with lumbar loop dialysis catheters with three lumens, as previously described, see (Yaksh, et al., supra, 2001).
In brief, the outer two lumens were connected to a length of dialysis tubing (10 Kda cut off). The catheter was then implanted intrathecally using the same technique as described above for the intrathecal catheter. A three-day interval was allowed to elapse prior to including the animal in a study. In all cases, the exclusion criteria were i) presence of any neurological sequelae, ii) 20% weight loss after implantation, or iii) catheter occlusion.
Spinal dialysis experiments to define the spinal release of PGE2 were conducted in unanesthetized rats 3 days after dialysis catheter implantation. A syringe pump (Harvard, Natick, Mass.) was connected and dialysis tubing was perfused with artificial cerebro spinal fluid (ACSF) at a rate of 10 μl/min. The ACSF contained (mM) 151.1 Na^+, 2.6 K^+, 0.9 Mg^2+, 1.3 Ca^2+, 122.7 Cl^−, 21.0 HCO3, 2.5 HPO4 and 3.5 dextrose and was bubbled with 95% O2/5% CO2 before each experiment to adjust the final pH to 7.2. The efflux (20 min per fraction) was collected in an automatic fraction collector (Eicom, Kyoto, Japan) at 4° C. […] The concentration of PGE2 in spinal dialysate was measured by ELISA using a commercially available kit (Assay Designs 90001, Assay Designs, Ann Arbor, Mich.). The antibody is selective for PGE2 with less than 2.0% cross-reactivity to PGF1, PGF2, 6-ketoPGF1, PGA2 or PGB2, but cross-reacts with PGE1 and PGE3.

The test system of a further data set is COX-1 and COX-2 proteins. Put plainly: COX Activity Assay kit, in vitro cyclooxygenase activity. The data set is classed as biochemical. As to conditions: 50 μM. On the procedure: Inhibitors dissolved in DMSO (study compounds) or ethanol (indomethacin) were added to 50 μM final concentration and allowed to incubate with the assay mixture including enzyme for 5 minutes. After addition of TMPD and arachidonic acid, samples were mixed and allowed to incubate 5 minutes at room temperature before reading absorbance at 595 nm to determine results. Results were calculated and percent inhibition values derived.

What is called melting point is the temperature, or range, at which the solid turns liquid.

Regarding `CCCCCCCCCCCCCCC(=O)C(=O)NC(C=CC(=O)OC)CCCC` (centres unmarked) [AX073, 4-(2-Oxo-hexadecanoylamino)-oct-2-enoic acid methyl ester], the melting point fell in the range of 48 to 50 °C. The “Inhibition of GIVA PLA2, XI(50)” value in data set [1] is “XI(50) =0.018 ± 0.010 mole fraction”. In addition, the “Inhibition of GVIA PLA2, XI(50)” value in data set [2] was “XI(50) =0.032 ± 0.010 mole fraction”. Also, at GV sPLA2, the “efficacy against sPLA2” value stood at 75.3%. Further, in data set [3], the “reduction of PGE2 release” value is on record as “roughly 40%”. Further, the “reversibility of GVIA PLA2 inhibition” value on GVIA PLA2 (pre-incubated with 10 μM for 10 minutes, diluted 1:50, final 0.0004 mole fraction) was “freely reversible inhibitors”. Further, the “time-dependent inhibition of GVIA PLA2” value at GVIA PLA2 (preincubated 0, 5, 15 or 30 minutes, 5 μM inhibitor, 0.01 mole fraction) was “no increased potency with prolonged incubation”.
Turning to `CCCCCCCCC=CCCCCCCCC(=O)C(=O)NCCCC(=O)OC` [AX041, 4-(2-Oxo-nonadec-10-enoylamino)-butyric acid methyl ester], the “reduction of PGE2 release” value in data set [3] was “roughly 40%”.
As for `CCC(=O)C(=O)NCCCC(=O)O` [AX006], in data set [1], the “inhibition of GIVA PLA2 (cPLA2), in words” value is listed as “inhibit GIVA PLA2” and the “Group IVA XI(50) (mole fraction)” value stood at 0.024 ± 0.015 mole fraction. Further, the “inhibition of GVIA PLA2 (iPLA2), in words” value in data set [2] was “do not inhibit GVIA PLA2”. Also, the “Group VIA XI(50), class” value in data set [2] (at 0.091 mole fraction) is listed as “N.D. (25% inhibition or less at 0.091 mole fraction)”. Also, in data set [2] (at highest dose), the “Inhibition of GVIA PLA2” value is given as “ND (negligible inhibition (0-25%) at highest dose)”. For the same compound, in the data set with spinal release of PGE2, the “IT SP-evoked release of PGE2 in spinal dialysate” value is given as “significant increase as compared to vehicle only”.
For `COc1ccc2c(c1)c(CC(=O)O)c(C)n2C(=O)c1ccc(Cl)cc1` [indomethacin, reference compound], in the data set with COX-1 and COX-2 proteins, the “inhibition of cyclooxygenase activity” value is reported as “near complete inhibition”.
The compound `CCCCCCCCCCCCCCC(=O)C(=O)NCCCC(=O)OC(C)(C)C` [AX057, tert-Butyl 4-[(2-oxohexadecanoyl)amino]butanoate] gave a melting point of 61 to 62 °C. The “Group IVA XI(50) (mole fraction)” value in data set [1] was found to be 0.031 ± 0.017 mole fraction. The “Group VIA XI(50) (mole fraction)” value in data set [2] (Table 1b) turned out to be 0.026 ± 0.014 mole fraction. The “efficacy against sPLA2” value at GV sPLA2 is 76.7%. Moreover, the “IT SP-evoked release of PGE2 in spinal dialysate” value in the data set with spinal release of PGE2 is recorded as “significant increase as compared to vehicle only”.
